Measured values published in patent US9701670B2, “Pyrazolyl-ureas as kinase inhibitors” (RESPIVERT LIMITED, priority 2013, dated 2017).

Experiments:
[1] = molecular target: T1, p38 MAPKα isoform (MAPK14) (Homo sapiens (Human), UniProt Q16539); test: p38 MAPKα enzyme inhibition (FRET, Z-LYTE), Method 2; assay type: biochemical; details: Method 2, different laboratory (Table 4a2)
Protocol: The enzyme inhibitory activities of compounds disclosed herein are determined by FRET using synthetic peptides labelled with both donor and acceptor fluorophores (Z-LYTE, Invitrogen Ltd., Paisley, UK).
The inhibitory activities of test compounds against the p38 MAPKα isoform (MAPK14: Invitrogen), are evaluated indirectly by determining the level of activation/phosphorylation of the down-stream molecule, MAPKAP-K2. The p38 MAPKα protein (80 ng/mL, 2.5 μL) is mixed with the test compound (2.5 μL of either 4 μg/mL, 0.4 μg/mL, 0.04 μg/mL or 0.004 μg/mL) for 2 hr at RT. […] The mixture is incubated for 1 hr at RT. Development reagent (protease, 5 μL) is added for 1 hr prior to detection in a fluorescence microplate reader (Varioskan® Flash, ThermoFisher Scientific).
In all cases, the site-specific protease cleaves non-phosphorylated peptide only and eliminates the FRET signal. Phosphorylation levels of each reaction are calculated using the ratio of coumarin emission (donor) over fluorescein emission (acceptor), for which high ratios indicate high phosphorylation and low ratios indicate low phosphorylation levels.

[2] = tested on: β-catenin in d-U937 cells; test: (m) Accumulation of β catenin in d-U937 cells; assay type: cell-based, human
Protocol: U937 cells, a human monocytic cell line, are differentiated into macrophage-type cells by incubation with PMA; (100 ng/mL) for between 48 to 72 hr. The cells are then incubated with either final concentrations of test compound or vehicle for 18 hr. The induction of β-catenin by the test compounds is stopped by replacing the media with 4% formaldehyde solution. Endogenous peroxide activity is neutralised by incubating with quenching buffer (100 μL, 0.1% sodium azide, 1% H2O2 in PBS with 0.05% Tween-20) for 20 min. The cells are washed with washing buffer (200 μL; PBS containing 0.05% Tween-20) and incubated with blocking solution (200 μL; 5% milk in PBS) for 1 hr, re-washed with washing buffer (200 μL) and then incubated overnight with anti-β-catenin antibody solution (50 μL) in 1% BSA/PBS (BD, Oxford, UK).
After washing with washing buffer (3×200 μL; PBS containing 0.05% Tween-20), cells are incubated with an HRP-conjugated secondary antibody solution (100 μL) in 1% BSA/PBS (Dako, Cambridge, UK) and the resultant signal is determined colourimetrically (OD: 450 nm with a reference wavelength of 655 nm) using TMB substrate (50 μL; R&D Systems, Abingdon, UK). This reaction is stopped by addition of 1N H2SO4 solution (50 μL). Cells are then washed with washing buffer and 2% crystal violet solution (50 μL) is applied for 30 min. After washing with washing buffer (3×200 μL), 1% SDS (100 μL) is added to each well and the plates are shaken lightly for 1 hr prior to measuring the absorbance at 595 nm (Varioskan® Flash, Thermo-Fisher Scientific).
The measured OD450-655 readings are corrected for cell number by dividing the OD450-655 by the OD595 readings. […] A signal less than 0.15 (15%) of that observed for the standard control is designated as “-ve”.

[3] = molecular target: T1, p38 MAPKα isoform (MAPK14); test: p38 MAPKα enzyme inhibition (FRET, Z-LYTE), Method 1; assay type: biochemical; details: Method 1 (Table 4a1)
[4] = tested on: Differentiated U937 cells; test: (l) Cell viability: MTT assay; assay type: cell-based, human; details: 1 μg/mL
Procedure, shortened: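 MTT read-out (1 h, absorbance 550 nm) on d-U937 cells after pre-incubation with 1 or 10 μg/mL compound under two regimes: 4 h, 5% FCS, or 24 h, 10% FCS RPMI1640. Values are percent loss of viability relative to vehicle (0.5% DMSO), so increases are reported as negative.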

BDF1 mice = test: (C) TNBS-induced colitis in mice; assay type: in vivo, mouse; set-up: TNBS Ulcer grade / TNBS LP inflammation: scale not given here; details: mice, 2.5 mg/kg oral BID, 2 days
Protocol: Non-fasted, 10-12 week old, male BDF1 mice are dosed by oral gavage twice daily with either vehicle (5 mL/kg), reference item (Budesonide 2.5 mg/kg) or test compound (1, 5 or 50 mg/kg) one day before (Day −1) stimulation of the inflammatory response by treatment with 2,4,6-trinitrobenzenesulphonic acid (TNBS) (15 mg/mL in 50% ethanol/50% saline). On Day 0 of the study TNBS (200 μL) is administered intra-colonically via a plastic catheter followed by BID dosing of the vehicle, reference or test compound for 2 or 4 days. During the study animals are weighed every day and stool observations are made and recorded as a score, based on stool consistency. At the time of sacrifice on Day 2 (or Day 4) the large intestine is removed and the length and weight recorded. Sections of the colon are taken for either MPO analysis to determine neutrophil infiltration or for histopathology involving scoring to determine disease severity.

T1 sequence (Q16539 whole entry, canonical isoform): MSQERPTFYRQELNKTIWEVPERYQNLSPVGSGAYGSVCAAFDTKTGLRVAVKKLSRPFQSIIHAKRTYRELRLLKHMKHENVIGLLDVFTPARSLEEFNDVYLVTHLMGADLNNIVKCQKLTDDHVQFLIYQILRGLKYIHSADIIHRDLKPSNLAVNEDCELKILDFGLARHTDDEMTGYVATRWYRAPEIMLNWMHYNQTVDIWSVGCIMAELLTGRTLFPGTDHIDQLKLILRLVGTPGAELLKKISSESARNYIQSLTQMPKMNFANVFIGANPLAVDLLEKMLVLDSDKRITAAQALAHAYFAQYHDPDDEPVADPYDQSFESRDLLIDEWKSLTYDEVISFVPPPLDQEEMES

| IC50 [1] [µM] | IC50 [3] [µM] | SMILES | % β-catenin induction ([2]; 1 μg/mL test compound) [%] | % β-catenin induction ([2]; 5 μg/mL test compound) [%] | Cell viability at time point in d-U937 cells 4 h [4] | Cell viability at time point in d-U937 cells 24 h [4] | TNBS LP inflammation (BDF1 mice) | TNBS Ulcer grade (BDF1 mice) | % β-catenin induction ([2]; 10 μg/mL test compound) [%] |
| --- | --- | --- | --- | --- | --- | --- | --- | --- | --- |
| 0.05 | 0.04 | COc1cc(Nc2cc(Oc3ccc(NC(=O)Nc4cc(C(C)(C)C)nn4-c4ccc(C)cc4)c4ccccc34)ccn2)cc(C(=O)NCCN2CCOCC2)c1 [Example 1, 3-((4-((4-(3-(3-(tert-Butyl)-1-(p-tolyl)-1H-pyrazol-5-yl)ureido)naphthalen-1-yl)oxy)pyridin-2-yl)amino)-5-methoxy-N-(2-morpholinoethyl)benzamide] | −7 | −6 | −ve (−ve and +ve indicate that the value is below and above respectively, the no significant effect threshold, defined as 30% inhibition at 1 μg/mL at the time point indicated.) | −ve (−ve and +ve indicate that the value is below and above respectively, the no significant effect threshold, defined as 30% inhibition at 1 μg/mL at the time point indicated.) |  |  |  |
|  |  | CCCC1O[C@@H]2C[C@H]3[C@@H]4CCC5=CC(=O)C=C[C@]5(C)[C@H]4[C@@H](O)C[C@]3(C)[C@]2(C(=O)CO)O1 (stereo partly drawn) [Budesonide, reference compound] |  |  |  |  | 2.5 ± 0.4 | 2.9 ± 0.6 |  |
| 0.049 |  | C#Cc1cc(Nc2nccc(Oc3ccc(NC(=O)Nc4cc(C(C)(C)C)nn4-c4ccc(C)cc4)c4ccccc34)n2)cc(C(=O)NCCN2CCOCC2)c1 [Example 75, 3-((4-((4-(3-(3-(tert-Butyl)-1-(p-tolyl)-1H-pyrazol-5-yl)ureido)naphthalen-1-yl)oxy)pyrimidin-2-yl)amino)-5-ethynyl-N-(2-morpholinoethyl)benzamide] | −14 | −10 |  |  |  |  |  |
| 0.233 |  | C#Cc1cc(Nc2nccc(Oc3ccc(NC(=O)Nc4cc(C(C)(C)C(F)(F)F)nn4-c4ccc(C)cc4)c4ccccc34)n2)cc(C(=O)NCCN2CCOCC2)c1 [Example 76, 3-Ethynyl-N-(2-morpholinoethyl)-5-((4-((4-(3-(1-(p-tolyl)-3-(1,1,1-trifluoro-2-methylpropan-2-yl)-1H-pyrazol-5-yl)ureido)naphthalen-1-yl)oxy)pyrimidin-2-yl)amino)-benzamide] | −3 | −1 |  |  |  |  |  |
| 0.408 |  | C#Cc1cc(Nc2nccc(Oc3ccc(NC(=O)Nc4cc(C(C)C)nn4-c4ccc(C)cc4)c(Cl)c3Cl)n2)cc(C(=O)NCCN2CCOCC2)c1 [Example 87, 3-((4-(2,3-Dichloro-4-(3-(3-isopropyl-1-(p-tolyl)-1H-pyrazol-5-yl)ureido)-phenoxy)pyrimidin-2-yl)amino)-5-ethynyl-N-(2-morpholinoethyl)benzamide] |  |  |  |  |  |  |  |
| 0.104 | 0.025 | COCCNC(=O)c1cc(Nc2nccc(Oc3ccc(NC(=O)Nc4cc(C(C)C)nn4-c4ccc(OC)cc4)c4ccccc34)n2)cc(OC)c1 [Example 11, 3-((4-((4-(3-(3-Isopropyl-1-(4-methoxyphenyl)-1H-pyrazol-5-yl)ureido)naphthalen-1-yl)oxy)pyrimidin-2-yl)amino)-5-methoxy-N-(2-methoxyethyl)benzamide] | −1 | 1 | −ve (−ve and +ve indicate that the value is below and above respectively, the no significant effect threshold, defined as 30% inhibition at 1 μg/mL at the time point indicated.) | −ve (−ve and +ve indicate that the value is below and above respectively, the no significant effect threshold, defined as 30% inhibition at 1 μg/mL at the time point indicated.) |  |  | 1 |
| 0.138 |  | C#Cc1cc(Nc2nccc(Oc3ccc(NC(=O)Nc4cc(C(C)(C)C)nn4-c4ccc(C)cc4)c4ccccc34)n2)cc(C(=O)N[C@@H](C)CN2CCOCC2)c1 [Example 81, (S)-3-((4-((4-(3-(3-(tert-Butyl)-1-(p-tolyl)-1H-pyrazol-5-yl)ureido)naphthalen-1-yl)oxy)pyrimidin-2-yl)amino)-5-ethynyl-N-(1-morpholinopropan-2-yl)benzamide] | 3 | −3 |  |  |  |  |  |
| 0.047 |  | C#Cc1cc(Nc2nccc(Oc3ccc(NC(=O)Nc4cc(C(C)(C)C)nn4-c4ccc(OC)nc4)c4ccccc34)n2)cc(C(=O)NCCN2CCOCC2)c1 [Example 73, 3-((4-((4-(3-(3-(tert-Butyl)-1-(6-methoxypyridin-3-yl)-1H-pyrazol-5-yl)ureido)naphthalen-1-yl)oxy)pyrimidin-2-yl)amino)-5-ethynyl-N-(2-morpholinoethyl)benzamide] | 17 | −7 |  |  |  |  | 7 |
| 0.261 |  | C#Cc1cc(Nc2nccc(Oc3ccc(NC(=O)Nc4cc(C(C)(C)C)nn4-c4ccc(C)cc4)c4ccccc34)n2)cc(C(=O)N[C@H](C)CN2CCOCC2)c1 [Example 83, (R)-3-((4-((4-(3-(3-(tert-Butyl)-1-(p-tolyl)-1H-pyrazol-5-yl)ureido)naphthalen-1-yl)oxy)pyrimidin-2-yl)amino)-5-ethynyl-N-(1-morpholinopropan-2-yl)benzamide] | −3 | −6 |  |  |  |  |  |
| 0.158 |  | C#Cc1cc(Nc2nccc(Oc3ccc(NC(=O)Nc4cc(C(C)(C)C)nn4-c4ccc(OC)cc4)c4ccccc34)n2)cc(C(=O)N[C@@H](C)COC)c1 [Example 85, (S)-3-((4-((4-(3-(3-(tert-Butyl)-1-(4-methoxyphenyl)-1H-pyrazol-5-yl)ureido)-naphthalen-1-yl)oxy)pyrimidin-2-yl)amino)-5-ethynyl-N-(1-methoxypropan-2-yl)-benzamide] | 7 | 3 |  |  |  |  | 6 |
